PubChem BioAssay AID256 (DTP/NCI, 2004)
Values joined by “and” are separate entries in the source; they are usually repeats but may differ in a detail not shown here. Equal entries are not always repeated. Toxic doses and inconclusive results are not listed.

Tested on: CD2F1 mice, L1210 leukemia ip, survival T/C
Assay: NCI In Vivo Anticancer Drug Screen. Data for tumor model L1210 Leukemia (intraperitoneal) in CD2F1 (CDF1) mice
Conditions: higher = longer survival
Outline: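 Ratio T/C, where T is the treated-group value and C the vehicle-dosed control value, from mice implanted with a transplantable tumor.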

COc1cccc2c1C(=O)c1c(O)c3c(c(O)c1C2=O)C[C@@](O)(C(=O)CO)C[C@@H]3OC1CC(N)C(O)C(C)O1 (stereo partly specified)
T/C (endpoint: mean survival time, dose: 0.06 mg/kg/injection, schedule: Q01DX009 (ip), vehicle: saline): 105 % of control
T/C (endpoint: mean survival time, dose: 0.12 mg/kg/injection, schedule: Q01DX009 (ip), vehicle: saline): 114 % of control
T/C (endpoint: mean survival time, dose: 0.2 mg/kg/injection, schedule: Q01DX009 (ip), vehicle: water): 113 % of control and 114 % of control
T/C (endpoint: mean survival time, dose: 0.25 mg/kg/injection, schedule: Q01DX005 (ip), vehicle: water): 121 % of control
T/C (endpoint: mean survival time, dose: 0.38 mg/kg/injection, schedule: Q01DX009 (ip), vehicle: saline): 121 % of control
T/C (endpoint: mean survival time, dose: 0.39 mg/kg/injection, schedule: Q01DX009 (ip), vehicle: water): 117 % of control
T/C (endpoint: mean survival time, dose: 0.43 mg/kg/injection, schedule: Q01DX009 (ip), vehicle: saline): 120 % of control
T/C (endpoint: mean survival time, dose: 0.62 mg/kg/injection, schedule: Q04DX003 (ip), vehicle: water): 120 % of control
T/C (endpoint: mean survival time, dose: 0.63 mg/kg/injection, schedule: Q04DX003 (ip), vehicle: water): 123 % of control
T/C (endpoint: mean survival time, dose: 0.72 mg/kg/injection, schedule: Q01DX009 (ip), vehicle: saline): 173 % of control
T/C (endpoint: mean survival time, dose: 1.0 mg/kg/injection, schedule: Q01DX001 (ip), vehicle: water): 101 % of control
T/C (endpoint: mean survival time, dose: 1.0 mg/kg/injection, schedule: Q01DX005 (ip), vehicle: water): 174 % of control
T/C (endpoint: mean survival time, dose: 1.08 mg/kg/injection, schedule: Q04DX003 (ip), vehicle: saline): 124 % of control
T/C (endpoint: mean survival time, dose: 1.2 mg/kg/injection, schedule: Q01DX009 (ip), vehicle: saline): 204 % of control
T/C (endpoint: mean survival time, dose: 1.68 mg/kg/injection, schedule: Q01DX001 (ip), vehicle: water): 159 % of control
T/C (endpoint: mean survival time, dose: 1.68 mg/kg/injection, schedule: Q01DX009 (ip), vehicle: water): 160 % of control
T/C (endpoint: mean survival time, dose: 1.7 mg/kg/injection, schedule: Q01DX001 (ip), vehicle: water): 99 % of control
T/C (endpoint: mean survival time, dose: 1.8 mg/kg/injection, schedule: Q04DX003 (ip), vehicle: saline): 121 % of control
T/C (endpoint: mean survival time, dose: 2.0 mg/kg/injection, schedule: Q01DX001 (ip), vehicle: saline): 102 % of control
T/C (endpoint: mean survival time, dose: 2.5 mg/kg/injection, schedule: Q04DX003 (ip), vehicle: water): 187 % of control
T/C (endpoint: mean survival time, dose: 2.8 mg/kg/injection, schedule: Q01DX001 (ip), vehicle: water): 155 % of control
T/C (endpoint: mean survival time, dose: 2.8 mg/kg/injection, schedule: Q01DX009 (ip), vehicle: water): 153 % of control
T/C (endpoint: mean survival time, dose: 2.9 mg/kg/injection, schedule: Q01DX001 (ip), vehicle: water): 98 % of control
T/C (endpoint: mean survival time, dose: 3.0 mg/kg/injection, schedule: Q01DX009 (ip), vehicle: saline): 114 % of control and 101 % of control
T/C (endpoint: mean survival time, dose: 3.13 mg/kg/injection, schedule: Q01DX009 (ip), vehicle: water): 101 % of control
T/C (endpoint: mean survival time, dose: 4.0 mg/kg/injection, schedule: Q01DX001 (ip), vehicle: saline): 193 % of control
T/C (endpoint: mean survival time, dose: 4.67 mg/kg/injection, schedule: Q01DX001 (ip), vehicle: water): 166 % of control
T/C (endpoint: mean survival time, dose: 4.67 mg/kg/injection, schedule: Q01DX009 (ip), vehicle: water): 100 % of control
T/C (endpoint: mean survival time, dose: 4.8 mg/kg/injection, schedule: Q01DX001 (ip), vehicle: water): 102 % of control
T/C (endpoint: mean survival time, dose: 5.0 mg/kg/injection, schedule: Q01DX001 (ip), vehicle: saline): 150 % of control and 171 % of control
T/C (endpoint: mean survival time, dose: 5.0 mg/kg/injection, schedule: Q01DX001 (ip), vehicle: water): 151 % of control and 178 % of control
T/C (endpoint: mean survival time, dose: 5.0 mg/kg/injection, schedule: Q04DX003 (ip), vehicle: water): 166 % of control
T/C (endpoint: mean survival time, dose: 5.4 mg/kg/injection, schedule: Q01DX001 (ip), vehicle: saline): 151 % of control and 260 % of control
T/C (endpoint: mean survival time, dose: 6.6 mg/kg/injection, schedule: Q01DX001 (ip), vehicle: saline): 193 % of control
T/C (endpoint: mean survival time, dose: 7.78 mg/kg/injection, schedule: Q01DX001 (ip), vehicle: water): 153 % of control
T/C (endpoint: mean survival time, dose: 8.0 mg/kg/injection, schedule: Q01DX001 (ip), vehicle: saline): 208 % of control
T/C (endpoint: mean survival time, dose: 8.0 mg/kg/injection, schedule: Q01DX001 (ip), vehicle: water): 98 % of control
T/C (endpoint: mean survival time, dose: 8.0 mg/kg/injection, schedule: Q04DX003 (ip), vehicle: saline): 163 % of control
T/C (endpoint: mean survival time, dose: 8.0 mg/kg/injection, schedule: Q04DX003 (ip), vehicle: water): 116 % of control
T/C (endpoint: mean survival time, dose: 10.0 mg/kg/injection, schedule: Q01DX001 (ip), vehicle: water): 169 % of control and 176 % of control
T/C (endpoint: mean survival time, dose: 10.0 mg/kg/injection, schedule: Q04DX003 (ip), vehicle: water): 89 % of control
T/C (endpoint: mean survival time, dose: 12.96 mg/kg/injection, schedule: Q01DX001 (ip), vehicle: water): 161 % of control
T/C (endpoint: mean survival time, dose: 13.33 mg/kg/injection, schedule: Q01DX001 (ip), vehicle: water): 104 % of control
T/C (endpoint: mean survival time, dose: 15.0 mg/kg/injection, schedule: Q01DX001 (ip), vehicle: saline): 196 % of control and 201 % of control
T/C (endpoint: mean survival time, dose: 18.0 mg/kg/injection, schedule: Q01DX001 (ip), vehicle: saline): 121 % of control
T/C (endpoint: mean survival time, dose: 20.0 mg/kg/injection, schedule: Q01DX001 (ip), vehicle: saline): 225 % of control
T/C (endpoint: mean survival time, dose: 20.0 mg/kg/injection, schedule: Q01DX001 (ip), vehicle: water): 121 % of control and 263 % of control
T/C (endpoint: mean survival time, dose: 22.23 mg/kg/injection, schedule: Q01DX001 (ip), vehicle: water): 119 % of control
T/C (endpoint: mean survival time, dose: 40.0 mg/kg/injection, schedule: Q01DX001 (ip), vehicle: water): 100 % of control
T/C (endpoint: mean survival time, dose: 20.0 micrograms/kg/injection, schedule: Q01DX005 (ip), vehicle: saline): 100 % of control
T/C (endpoint: mean survival time, dose: 40.0 micrograms/kg/injection, schedule: Q01DX005 (ip), vehicle: saline): 117 % of control
T/C (endpoint: median survival time, dose: 0.5 mg/kg/injection, schedule: Q01DX009 (ip), vehicle: saline): 170 % of control
T/C (endpoint: median survival time, dose: 1.0 mg/kg/injection, schedule: Q01DX005 (ip), vehicle: water): 150 % of control
T/C (endpoint: median survival time, dose: 2.0 mg/kg/injection, schedule: Q01DX005 (ip), vehicle: water): 162 % of control
T/C (endpoint: median survival time, dose: 2.0 mg/kg/injection, schedule: Q04DX003 (ip), vehicle: water): 163 % of control
T/C (endpoint: median survival time, dose: 2.16 mg/kg/injection, schedule: Q04DX003 (ip), vehicle: saline): 115 % of control
T/C (endpoint: median survival time, dose: 3.6 mg/kg/injection, schedule: Q01DX001 (ip), vehicle: saline): 151 % of control
T/C (endpoint: median survival time, dose: 3.6 mg/kg/injection, schedule: Q04DX003 (ip), vehicle: saline): 113 % of control
T/C (endpoint: median survival time, dose: 4.0 mg/kg/injection, schedule: Q04DX003 (ip), vehicle: saline): 157 % of control
T/C (endpoint: median survival time, dose: 4.0 mg/kg/injection, schedule: Q04DX003 (ip), vehicle: water): 339 % of control
T/C (endpoint: median survival time, dose: 4.8 mg/kg/injection, schedule: Q01DX001 (ip), vehicle: saline): 103 % of control
T/C (endpoint: median survival time, dose: 5.0 mg/kg/injection, schedule: Q01DX001 (ip), vehicle: saline): 150 % of control and 155 % of control
T/C (endpoint: median survival time, dose: 6.0 mg/kg/injection, schedule: Q01DX001 (ip), vehicle: saline): 152 % of control
T/C (endpoint: median survival time, dose: 6.0 mg/kg/injection, schedule: Q04DX003 (ip), vehicle: saline): 115 % of control
T/C (endpoint: median survival time, dose: 8.0 mg/kg/injection, schedule: Q01DX009 (ip), vehicle: saline): 104 % of control
T/C (endpoint: median survival time, dose: 8.0 mg/kg/injection, schedule: Q04DX003 (ip), vehicle: saline): 154 % of control
T/C (endpoint: median survival time, dose: 8.0 mg/kg/injection, schedule: Q04DX003 (ip), vehicle: water): 182 % of control and 339 % of control
T/C (endpoint: median survival time, dose: 8.4 mg/kg/injection, schedule: Q04DX003 (ip), vehicle: water): 103 % of control
T/C (endpoint: median survival time, dose: 9.6 mg/kg/injection, schedule: Q01DX001 (ip), vehicle: saline): 113 % of control and 216 % of control
T/C (endpoint: median survival time, dose: 14.0 mg/kg/injection, schedule: Q04DX003 (ip), vehicle: water): 78 % of control
T/C (endpoint: median survival time, dose: 16.0 mg/kg/injection, schedule: Q01DX001 (ip), vehicle: water): 76 % of control
T/C (endpoint: median survival time, dose: 16.0 mg/kg/injection, schedule: Q01DX001 (iv), vehicle: water): 193 % of control
T/C (endpoint: median survival time, dose: 20.0 mg/kg/injection, schedule: Q01DX001 (ip), vehicle: saline): 71 % of control
T/C (endpoint: median survival time, dose: 26.7 mg/kg/injection, schedule: Q01DX001 (ip), vehicle: saline): 99 % of control
T/C (endpoint: median survival time, dose: 32.0 mg/kg/injection, schedule: Q01DX001 (iv), vehicle: water): 65 % of control
T/C (endpoint: median survival time, dose: 40.0 mg/kg/injection, schedule: Q01DX001 (ip), vehicle: saline): 53 % of control
